Measurements published in ChEMBL document CHEMBL5137058, “Therapeutic Strategies to Target the Androgen Receptor” (J Med Chem, 2022).

Assays:
[1] = Antitumor activity against bicalutamide-resistant human LNCaP-cxD2 cells xenografted in mouse at 40 mg/kg, po administered for 28 days; type: functional; conditions: time 28 day
[2] = molecular target: T1, Androgen receptor (Homo sapiens) (UniProt P10275); test: Antagonist activity at Androgen receptor in human LNCaP cells assessed as inhibition of PSA expression at 10 uM measured by ELISA assay; type: cell-based; parameters: scale not given: the % may be the effect or the level left
T1 sequence (whole entry): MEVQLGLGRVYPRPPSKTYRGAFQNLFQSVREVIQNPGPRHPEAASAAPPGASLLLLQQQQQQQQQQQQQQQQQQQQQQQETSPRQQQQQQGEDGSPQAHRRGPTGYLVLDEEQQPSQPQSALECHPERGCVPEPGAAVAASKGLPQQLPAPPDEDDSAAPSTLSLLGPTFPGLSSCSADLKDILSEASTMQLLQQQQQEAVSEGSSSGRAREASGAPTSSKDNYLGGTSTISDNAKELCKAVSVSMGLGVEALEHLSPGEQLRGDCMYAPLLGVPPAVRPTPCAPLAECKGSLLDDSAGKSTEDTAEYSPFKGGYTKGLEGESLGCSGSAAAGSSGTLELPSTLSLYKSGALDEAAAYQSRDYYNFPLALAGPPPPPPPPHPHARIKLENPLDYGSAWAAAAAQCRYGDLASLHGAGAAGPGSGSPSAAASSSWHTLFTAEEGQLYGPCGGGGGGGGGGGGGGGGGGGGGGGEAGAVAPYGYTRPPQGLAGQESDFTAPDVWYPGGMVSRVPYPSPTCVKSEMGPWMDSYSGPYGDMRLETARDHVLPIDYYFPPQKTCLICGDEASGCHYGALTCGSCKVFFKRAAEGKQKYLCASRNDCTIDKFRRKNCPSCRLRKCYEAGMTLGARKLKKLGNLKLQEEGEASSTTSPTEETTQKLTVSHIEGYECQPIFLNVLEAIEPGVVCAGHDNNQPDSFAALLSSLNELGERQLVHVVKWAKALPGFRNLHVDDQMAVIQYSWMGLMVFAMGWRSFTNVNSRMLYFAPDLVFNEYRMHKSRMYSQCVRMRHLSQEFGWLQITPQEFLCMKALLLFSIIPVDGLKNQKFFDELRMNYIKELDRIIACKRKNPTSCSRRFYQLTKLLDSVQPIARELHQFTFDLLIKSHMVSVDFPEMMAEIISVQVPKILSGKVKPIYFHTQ

[3] = Inhibition of human LNCaP cell growth at 10 uM measured after 24 hrs by AlamarBlue staining method; type: functional
[4] = Half-life in plasma of rat; type: ADME
[5] = In vivo agonist activity at Androgen receptor in rat assessed as increase in levator ani muscle weight administered orally for 14 days; type: functional; conditions: 336 h, route po, time 14 day
Androgen receptor [6] = molecular target: T2, Androgen receptor (Homo sapiens, UniProt P10275); test: Antagonist activity at Androgen receptor (unknown origin) assessed as inhibition of activation function 1 (AF-1) of AR N-terminal transactivation domain (NTD)
T2 sequence (P10275 whole entry): T1 sequence (whole entry)

LNCaP [7] = test: Antiproliferative activity against human LNCaP cells expressing Androgen receptor T878A mutant; type: functional, cell-based
Androgen receptor [8] = molecular target: T2, Androgen receptor; test: Binding affinity to wild-type Androgen receptor (unknown origin)
LNCaP [9] = test: Antiproliferative activity against human LNCaP cells expressing wild-type Androgen receptor; type: functional, cell-based
Androgen receptor [10] = molecular target: Androgen receptor (Homo sapiens, UniProt P10275, T878A); test: Binding affinity to bicalutamide-resistant Androgen receptor T878A mutant (unknown origin)
Sequence of Androgen receptor (Homo sapiens, UniProt P10275, T878A) (P10275 whole entry T878A): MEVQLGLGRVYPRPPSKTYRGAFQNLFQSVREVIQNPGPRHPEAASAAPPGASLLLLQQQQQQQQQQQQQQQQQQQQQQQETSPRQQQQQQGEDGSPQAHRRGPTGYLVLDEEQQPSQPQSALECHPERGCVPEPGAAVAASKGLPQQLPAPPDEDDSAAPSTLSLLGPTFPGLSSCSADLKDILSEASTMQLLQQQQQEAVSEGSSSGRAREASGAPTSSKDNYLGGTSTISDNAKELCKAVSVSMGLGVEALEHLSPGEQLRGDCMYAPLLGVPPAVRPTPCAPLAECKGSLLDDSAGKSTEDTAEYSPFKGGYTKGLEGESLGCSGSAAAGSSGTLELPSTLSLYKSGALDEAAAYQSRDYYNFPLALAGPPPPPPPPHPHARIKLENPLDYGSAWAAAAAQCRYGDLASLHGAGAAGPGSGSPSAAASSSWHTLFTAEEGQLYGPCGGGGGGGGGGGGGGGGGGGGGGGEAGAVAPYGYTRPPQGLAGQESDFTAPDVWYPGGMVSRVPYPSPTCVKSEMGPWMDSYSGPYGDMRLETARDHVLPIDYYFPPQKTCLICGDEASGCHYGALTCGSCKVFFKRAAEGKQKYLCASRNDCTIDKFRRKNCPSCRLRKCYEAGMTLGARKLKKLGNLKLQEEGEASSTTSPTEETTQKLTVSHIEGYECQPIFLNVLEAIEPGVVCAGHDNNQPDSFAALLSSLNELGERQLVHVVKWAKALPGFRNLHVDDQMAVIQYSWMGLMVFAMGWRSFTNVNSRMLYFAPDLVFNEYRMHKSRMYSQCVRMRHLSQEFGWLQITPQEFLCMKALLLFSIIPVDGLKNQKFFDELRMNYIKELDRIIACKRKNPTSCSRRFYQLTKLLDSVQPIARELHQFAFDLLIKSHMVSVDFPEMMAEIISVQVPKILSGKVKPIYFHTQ

Androgen receptor [11] = molecular target: T2, Androgen receptor; type: cell-based, LNCaP C4-2
Description: Antagonist activity at Androgen receptor in human LNCaP C4-2 cells transfected with PSA6.1-luc and pRL-TK measured by luciferase gene reporter assay

Androgen receptor [12] = molecular target: T2, Androgen receptor; test: Displacement of [3H]DHT from Androgen receptor expressed in human MDA-MB-453 cells; type: cell-based
Androgen receptor [13] = molecular target: T2, Androgen receptor; test: Antagonist activity at Androgen receptor in human LNCaP cells measured by SEAP reporter gene assay; type: cell-based
Androgen receptor [14] = molecular target: T2, Androgen receptor; test: Antagonist activity at Androgen receptor in human MDA-MB-453 cells measured by SEAP reporter gene assay; type: cell-based
Rattus norvegicus [15] = test: Antagonist activity in mature male Sprague-Dawley rat assessed as decrease in seminal vesicle and prostate weight at 10 mg/kg, po administered once a day for 14 days; type: functional; parameters: scale not given: the % may be the effect or the level left; conditions: time 14 day
Rattus norvegicus [16] = test: Antagonist activity in mature male Sprague-Dawley rat assessed as decrease in seminal vesicle and prostate weight at 1 mg/kg, po administered once a day for 14 days; type: functional; parameters: scale not given: the % may be the effect or the level left; conditions: time 14 day
Rattus norvegicus [17] = test: Antagonist activity in mature male Sprague-Dawley rat assessed as decrease in seminal vesicle and prostate weight at 15 mg/kg, po administered once a day for 14 days; type: functional; parameters: scale not given: the % may be the effect or the level left; conditions: time 14 day
Androgen receptor [18] = molecular target: T2, Androgen receptor; test: Antagonist activity at Androgen receptor in human LNCaP cells assessed as inhibition of Binding Function 3 (BF3) of AR measured by enhanced green fluorescent protein transcriptional (eGFPT) assay; type: cell-based
[19] = In vivo agonist activity at Androgen receptor in castrated rat assessed as increase in prostate weight at 2 mg administered orally per day for 5 days; type: functional; conditions: route po, time 5 day
[20] = In vivo agonist activity at Androgen receptor in castrated rat assessed as increase in levator ani muscle weight at 2 mg administered orally per day for 5 days; type: functional; conditions: route po, time 5 day
Androgen receptor [21] = molecular target: T2, Androgen receptor; test: Agonist activity at Androgen receptor (unknown origin) measured by androgen response element luciferase assay
Androgen receptor [22] = molecular target: T2, Androgen receptor; test: Binding affinity to Androgen receptor (unknown origin); conditions: read-out: IC50
LNCaP [23] = test: Antiproliferative activity against human LNCaP cells expressing Androgen receptor […] mutant; type: functional, cell-based
PC-3 = test: Antiproliferative activity against androgen-independent human PC-3 cells; type: functional, cell-based
SC-3 = test: Antiproliferative activity against mouse SC-3 cells; type: functional, cell-based
CWR22R = test: Antiproliferative activity against human 22Rv1 cells expressing Androgen receptor H874Y mutant; type: functional, cell-based
Androgen receptor [24] = molecular target: Androgen receptor (Rattus norvegicus, UniProt P15207)
Sequence of Androgen receptor (Rattus norvegicus, UniProt P15207) (P15207 whole entry S389L): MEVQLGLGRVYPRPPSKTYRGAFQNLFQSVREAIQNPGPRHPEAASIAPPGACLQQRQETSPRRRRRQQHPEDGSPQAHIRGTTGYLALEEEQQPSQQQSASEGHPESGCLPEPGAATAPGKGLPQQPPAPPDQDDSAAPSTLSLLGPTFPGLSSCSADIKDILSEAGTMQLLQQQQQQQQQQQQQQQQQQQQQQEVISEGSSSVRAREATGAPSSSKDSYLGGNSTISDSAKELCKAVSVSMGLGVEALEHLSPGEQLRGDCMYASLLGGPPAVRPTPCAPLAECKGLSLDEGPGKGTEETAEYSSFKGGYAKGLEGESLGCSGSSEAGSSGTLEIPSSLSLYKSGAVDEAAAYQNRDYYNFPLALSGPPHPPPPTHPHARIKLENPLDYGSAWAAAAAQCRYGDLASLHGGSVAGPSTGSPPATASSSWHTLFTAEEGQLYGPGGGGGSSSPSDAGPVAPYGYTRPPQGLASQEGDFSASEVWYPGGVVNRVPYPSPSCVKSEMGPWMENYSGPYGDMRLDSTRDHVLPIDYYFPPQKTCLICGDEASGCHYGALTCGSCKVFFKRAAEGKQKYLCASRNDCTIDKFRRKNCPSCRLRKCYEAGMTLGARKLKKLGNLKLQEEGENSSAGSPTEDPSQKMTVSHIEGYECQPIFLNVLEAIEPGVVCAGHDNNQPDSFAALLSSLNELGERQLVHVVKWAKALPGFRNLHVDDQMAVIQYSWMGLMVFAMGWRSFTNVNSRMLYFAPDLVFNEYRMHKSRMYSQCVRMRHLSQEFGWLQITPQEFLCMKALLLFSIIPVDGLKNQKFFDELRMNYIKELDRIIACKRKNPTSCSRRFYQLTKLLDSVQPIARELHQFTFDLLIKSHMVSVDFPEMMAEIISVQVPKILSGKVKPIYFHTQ
Description: Binding affinity to rat Androgen receptor ligand binding domain measured by competitive ligand binding assay

LNCaP [25] = test: Antiproliferative activity against human LNCaP cells; type: functional, cell-based
MR49F = test: Antiproliferative activity against human MR49F cells; type: functional, cell-based
[26] = molecular target: Protein cereblon/Androgen receptor (Homo sapiens, UniProt P10275+Q96SW2); test: Protac activity at CRBN/Androgen receptor in human LNCaP cells assessed as Androgen receptor degradation; type: cell-based
Sequence of Protein cereblon/Androgen receptor (Q96SW2 whole entry, one chain of several): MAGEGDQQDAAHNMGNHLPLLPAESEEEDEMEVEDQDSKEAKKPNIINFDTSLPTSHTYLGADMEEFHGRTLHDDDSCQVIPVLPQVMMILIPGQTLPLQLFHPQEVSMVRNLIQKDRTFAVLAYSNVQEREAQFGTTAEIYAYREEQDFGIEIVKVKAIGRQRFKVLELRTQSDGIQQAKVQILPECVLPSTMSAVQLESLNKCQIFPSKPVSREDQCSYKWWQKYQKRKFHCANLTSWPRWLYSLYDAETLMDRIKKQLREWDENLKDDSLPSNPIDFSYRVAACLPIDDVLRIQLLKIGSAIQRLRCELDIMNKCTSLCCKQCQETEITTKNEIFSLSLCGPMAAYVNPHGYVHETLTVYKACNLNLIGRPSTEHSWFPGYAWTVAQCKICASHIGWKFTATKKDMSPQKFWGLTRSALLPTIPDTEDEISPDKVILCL

SMILES: Cc1nn(-c2ccc(C#N)c(Cl)c2)c(C)c1Cc1ccc(C(=O)NCC(C)(C)O)cc1
- T/C [1]: 23%

SMILES: COc1cc(/C=N/NC(=O)c2cc3c(ccc4ccccc43)o2)cc(OC)c1O
- Activity [2]: 30%
- inhibition at 10 µM [3]: 30%

SMILES: CC[C@H]1[C@@H]2[C@@H](O)CCN2C(=O)N1c1ccc(C#N)c(Cl)c1C
- half-life [4]: 5.5 h
- ED50 [5]: 0.09 mg/kg

SMILES: CC(=O)OC[C@H](COc1ccc(C(C)(C)c2ccc(OC[C@@H](CCl)OC(C)=O)cc2)cc1)OC(C)=O [RALANITEN ACETATE]
- IC50 (Androgen receptor [6]): 9.6 µM

SMILES: CNC(=O)c1ccc([C@]2(O)CCN(c3ccc(C#N)c(Cl)c3)[C@H]2C)cn1
- IC50 (LNCaP [7]): 1.7 µM
- IC50 (Androgen receptor [8]): 0.83 µM
- IC50 (LNCaP [9]): 0.29 µM
- IC50 (Androgen receptor [10]): 1.7 µM

SMILES: Cc1ccc(Cl)cc1N1CCN(C(=O)[C@@H]2C[C@@H]2c2ccc(F)cc2)CC1
- EC50 (Androgen receptor [11]): 1.7 µM

SMILES: CCS(=O)(=O)N[C@@H]1C[C@@]2(C)O[C@]1(C)[C@@H]1C(=O)N(c3ccc(C#N)c(C(F)(F)F)c3)C(=O)[C@@H]12
- Ki (Androgen receptor [12]): 0.0017 µM
- IC50 (Androgen receptor [13]): 0.153 µM
- IC50 (Androgen receptor [14]): 0.016 µM
- Activity (Rattus norvegicus [15]): 74%
- Activity (Rattus norvegicus [16]): 42%

SMILES: CNC(=O)[C@]12C(=O)N(c3ccc(C#N)c(C(F)(F)F)c3)C(=O)[C@H]1[C@H]1C[C@H](F)[C@@H]2C1
- Ki (Androgen receptor [12]): 0.008 µM
- IC50 (Androgen receptor [14]): 0.091 µM
- Activity (Rattus norvegicus [17]): 35%

SMILES: CC(C)C(NC(=O)c1cc2ccc(F)cc2[nH]1)c1ccco1 (configuration not stated)
- IC50 (Androgen receptor [18]): 0.43 µM

SMILES: C[C@@]12CC(C(F)(F)F)=NN1C(=O)N(c1ccc(C#N)c(C(F)(F)F)c1)C2=O
- Activity [19]: 11%
- Activity [20]: 75%

SMILES: C[C@](O)(CCOc1ccc(F)cc1)C(=O)N1CCc2c(C#N)cccc21
- EC50 (Androgen receptor [21]): 0.0025 µM
- IC50 (Androgen receptor [22]): 0.0127 µM

SMILES: COc1cccc(C(=O)Nc2ccc(Oc3ccc(O)cc3)c(C)c2)c1
- IC50 (LNCaP [23]): 0.043 µM
- IC50 (PC-3): > 10 µM
- IC50 (SC-3): 0.75 µM
- IC50 (CWR22R): 0.22 µM

SMILES: C[C@](O)(Cn1ccc2cc(F)ccc21)C(=O)Nc1ccc(C#N)c(C(F)(F)F)c1
- Ki (Androgen receptor [24]): > 10 µM

SMILES: Brc1ncn(-c2csc(N3CCOCC3)n2)c1Br
- IC50 (LNCaP [25]): < 0.5 µM
- IC50 (MR49F): < 0.5 µM

SMILES: C[C@](O)(COc1ccc(OCCOCCOc2cccc3c2C(=O)N(C2CCC(=O)NC2=O)C3=O)cc1)C(=O)Nc1ccc(I)c(C#N)c1 (some centres not stated)
- DC50 [26]: 5.2 µM
